According to publication PMC8438627 (The Journal of Cell Biology, 2021):

System: NAP1L4
Test: IP-IB of HA-tagged
Type: binding
Conditions: HA-tagged (PR)12 mixed with HEK293 cell lysates containing increasing concentrations of 1,6-hexanediol

Q: For `OCCCCCCO` [1,6-hexanediol], which “immunoprecipitated NAP1L4 signal with increasing 1,6-hexanediol” value is on record?
A: faded accordingly
